Literature values, collected in patent publication US20120134921A1, “SOLID COMPOSITIONS COMPRISING 5-AMINOLEVULINIC ACID” (Photocure ASA, priority 2009, published 2012).

Legend:
dysplastic lesions = conditions: sterile solution administered as local probe, chronic colitis rat models
[1] = system: pre-malignant conditions in the colon; conditions: enemas, 5-ALA hexyl ester in sterile phosphate buffered saline

CCCCCCOC(=O)CCC(=O)CN [5-ALA hexyl ester, n-hexyl aminolevulinic acid ester]
Sensitivity of detection of dysplastic lesions by fluorescence (dysplastic lesions): 60%
Specificity of detection of dysplastic lesions by fluorescence (dysplastic lesions): 51%
More polyps detected by PDD than with white light endoscopic imaging [1]: 28%
